“Also recorded” adds a separate entry of the source. Where two headings read alike, the source gives them in different places.
What was measured:
clinical = settings: human, in vivo
Excerpt: (§1) The objective of this study was to evaluate the pharmacokinetics (PK) of LEN during oral bridging period (OBP) to assess the adequacy of 300-mg PO once-weekly (QW) regimen for maintaining therapeutic concentrations between missed SC LEN doses. During OBP, sparse PK samples were collected at the start of OBP and every ˜10-12 weeks (without regard to a prespecified time since dose) until SC LEN was resumed. LEN plasma concentrations were summarized during OBP in the CAPELLA (N=57) and CALIBRATE (N=82) studies.
Participants required oral weekly bridging if an SC injection of LEN could not be administered for any reason within the protocol visit window. If 26 to 28 weeks elapsed since the last SC injection, and if clinically appropriate to continue LEN, participants started oral LEN 300 mg (1 tablet) once a week at the oral bridging visit(s) and continued weekly dosing on the same day of the week. If more than 28 weeks elapsed since the last SC injection, and if clinically appropriate to continue LEN, participants restarted the oral lead-in at the oral bridging visits and continued oral weekly dosing on the same day of the week, until SC LEN was administered, as shown in Table 6.
Oral bridging day was calculated from first dose date of Oral Bridging.

[1] = LEN plasma concentrations during oral bridging period, CALIBRATE (Phase 2, ARV-naive PWH); assay type: in vivo; settings: for concentration at 1 day / concentration at 10 week / concentration at 20 week / concentration at 30 week: human, plasma, 300 mg
Excerpt: as §1
This Example describes a Phase 2, randomized, open-label, active-controlled, multicenter study. Participants in Treatment Groups 1 and 2 required oral bridging following a clinical hold imposed by the Food & Drug Administration on injectable LEN as the SC injection of LEN could not be administered within the protocol visit window. An Oral Bridging visit was completed every 10 to 12 weeks. Participants had to have met all of the inclusion criteria and none of the exclusion criteria to be included in the study.
Participants in Treatment Groups 1 and 2 required oral weekly bridging when SC injection of LEN could not be administered due to the LEN clinical hold. • If 26 to 28 weeks elapsed since the last SC injection and if clinically appropriate to continue LEN, oral LEN 300 mg (1 tablet) once a week was started at oral bridging visits and continued weekly dosing on the same day of the week. • If more than 28 weeks elapsed since the last SC injection and if clinically appropriate to continue LEN, the oral lead-in was restarted at the oral bridging visit and the participant continued oral weekly dosing on the same day of the week, until SC LEN was administered, as shown in Table 9. • Participants continued receiving oral weekly LEN 300 mg until they received their next SC LEN injection. • Oral bridging visits were completed every 10-12 weeks. Additional visits during the oral weekly administration were conducted perd investigator's discretion.

[2] = Safety during oral bridging period, CAPELLA; assay type: in vivo
[3] = tested on: HIV-1 capsid LEN resistance mutations; settings: for Fold decrease in LEN susceptibility: 1 participant
Excerpt: In HTE participants (Example 4), the resistance analysis population (RAP) during the oral bridging period included 9 participants (16%, 9/57) who met the criteria for resistance analysis, including 4 participants also present in the previous analysis. […];

HIV-1 (MT-4 cells) = experiment: Inhibitory quotient 4 (4-fold in vitro protein-adjusted 95% effective concentration, MT-4 cells); assay type: cell-based; settings: 4-fold in vitro protein binding-adjusted 95% effective concentration
[4] = Exposure-response analyses for efficacy and safety (PopPK-derived exposures); assay type: in vivo, human
Procedure: Exposure-response relationships for LEN were evaluated in HTE PWH with HIV-1 RNA<50 copies/mL at the oral bridging baseline in the Phase 2/3 study described in Example 4, using LEN exposure parameters (Ctrough, Cavg, and Cmax) derived from PopPK modeling.
Exposure-safety relationships for LEN were evaluated in the HTE PWH studies described in Example 4 (N=55), and in treatment-naive PWH in the study described in Example 5 (N=82) who received the oral bridging LEN regimen. Exposure-safety evaluations used LEN exposure metrics (Cavg, Ctrough, and Cmax) derived from PopPK analysis and the 5 most common treatment-emergent adverse events (TEAEs) were evaluated in relation to presence/absence in the LEN group across the entire oral bridging period in the two studies separately and combined (excluding infections and infestations AEs and injection site reactions).

[5] = human, in vivo, sc
[6] = po, Lower 90% CI of Concentration
[7] = po, Lower 90% CI of LEN concentration
[8] = SC LEN total, SC LEN resumption visit
[9] = Treatment Group 1, SC LEN resumption visit
[10] = Treatment Group 2, SC LEN resumption visit

CC(C)(C#Cc1ccc(-c2ccc(Cl)c3c(NS(C)(=O)=O)nn(CC(F)(F)F)c23)c([C@H](Cc2cc(F)cc(F)c2)NC(=O)Cn2nc(C(F)(F)F)c3c2C(F)(F)[C@@H]2C[C@H]32)n1)S(C)(=O)=O [LEN, N—((S)-1-(3-(4-chloro-3-(methylsulfonamido)-1-(2,2,2-trifluoroethyl)-1H-indazol-7-yl)-6-(3-methyl-3-(methylsulfonyl)but-1-yn-1-yl)pyridin-2-yl)-2-(3,5-difluorophenyl)ethyl)-2-((3bS,4aR)-5,5-difluoro-3-(trifluoromethyl)-3b,4,4a,5-tetrahydro-1H-cyclopropa [3,4]cyclopenta [1,2-c]pyrazol-1-yl) acetamide]
Mean LEN concentration and lower bound 90% CI versus efficacy target IQ4 (clinical): > 15.5 ng/mL
90% CI of mean LEN concentration (clinical; 10 week): 66.1, 86.3
90% CI of mean LEN concentration (clinical; 20 week): 50.4, 99.3
90% CI of mean LEN concentration (clinical; 30 week): 29.9, 53.5
90% CI of mean LEN concentration (clinical; 1 day): 40.3, 51.9
concentration at 10 day (clinical; po, Concentration, Mean (% CV)): 76.2 ng/mL
concentration at 20 day (clinical; po, Concentration, Mean (% CV)): 74.8 ng/mL
concentration at 10 day (clinical; [6]): 66.1 ng/mL
concentration at 20 day (clinical; [6]): 50.4 ng/mL
concentration at 30 day (clinical; [6]): 29.9 ng/mL
concentration at 10 week (clinical; [7]): 66.1 ng/mL
concentration at 20 week (clinical; [7]): 50.4 ng/mL
concentration at 30 week (clinical; [7]): 29.9 ng/mL
concentration at 1 day (clinical; [7]): 40.3 ng/mL
Mean LEN plasma concentration ([1]; SC LEN total (Groups 1+2), oral LEN 300 mg QW, Day 1): 27.8 (47.4) ng/mL
Lower 90% CI of Concentration [1, 8]: 43.6 ng/mL
Mean LEN plasma concentration [1, 8]: 50.7 ng/mL
Mean LEN plasma concentration ([1]; SC LEN total, Week 10): 54.9 (70.8) ng/mL
Mean LEN plasma concentration ([1]; SC LEN total, Week 20): 52.5 (77.7) ng/mL
Mean LEN plasma concentration ([1]; SC LEN total, Week 30): 50.1 (62.3) ng/mL
Mean LEN plasma concentration ([1]; Treatment Group 1 (SC LEN + [DVY→TAF]), Day 1): 28.8 (47.7) ng/mL
Lower 90% CI of Concentration [1, 9]: 38.6 ng/mL
Mean LEN plasma concentration [1, 9]: 49.4 ng/mL
Mean LEN plasma concentration ([1]; Treatment Group 1, Week 10): 50.9 (67.0) ng/mL
Mean LEN plasma concentration ([1]; Treatment Group 1, Week 20): 53.1 (84.5) ng/mL
Mean LEN plasma concentration ([1]; Treatment Group 1, Week 30): 43.7 (74.7) ng/mL
Mean LEN plasma concentration ([1]; Treatment Group 2 (SC LEN + [DVY→BIC]), Day 1): 26.7 (47.3) ng/mL
Lower 90% CI of Concentration [1, 10]: 42.7 ng/mL
Mean LEN plasma concentration [1, 10]: 52.2 ng/mL
Mean LEN plasma concentration ([1]; Treatment Group 2, Week 10): 59.3 (73.6) ng/mL
Mean LEN plasma concentration ([1]; Treatment Group 2, Week 20): 51.9 (70.2) ng/mL
Mean LEN plasma concentration ([1]; Treatment Group 2, Week 30): 56.5 (62.5) ng/mL
concentration at 1 day ([1]; oral, SC LEN total (Groups 1+2), oral LEN 300 mg QW, Day 1, read-out: Mean LEN plasma concentration): 27.8 ng/mL
concentration at 1 day ([1]; oral, Treatment Group 1, Day 1, read-out: Lower 90% CI of Concentration): 25.2 ng/mL
concentration at 10 week ([1]; oral, Treatment Group 1, Week 10, read-out: Lower 90% CI of Concentration): 41.1 ng/mL
concentration at 10 week ([1]; oral, Treatment Group 1, Week 10, read-out: Mean LEN plasma concentration): 50.9 ng/mL
concentration at 20 week ([1]; oral, Treatment Group 1, Week 20, read-out: Lower 90% CI of Concentration): 39.6 ng/mL
concentration at 20 week ([1]; oral, Treatment Group 1, Week 20, read-out: Mean LEN plasma concentration): 53.1 ng/mL
concentration at 30 week ([1]; oral, Treatment Group 1, Week 30, read-out: Mean LEN plasma concentration): 43.7 ng/mL
concentration at 1 day ([1]; oral, Treatment Group 2, Day 1, read-out: Lower 90% CI of Concentration): 23 ng/mL
concentration at 10 week ([1]; oral, Treatment Group 2, Week 10, read-out: Lower 90% CI of Concentration): 46.4 ng/mL
concentration at 10 week ([1]; oral, Treatment Group 2, Week 10, read-out: Mean LEN plasma concentration): 59.3 ng/mL
concentration at 20 week ([1]; oral, Treatment Group 2, Week 20, read-out: Lower 90% CI of Concentration): 40.2 ng/mL
concentration at 20 week ([1]; oral, Treatment Group 2, Week 20, read-out: Mean LEN plasma concentration): 51.9 ng/mL
concentration at 30 week ([1]; oral, Treatment Group 2, Week 30, read-out: Mean LEN plasma concentration): 56.5 ng/mL
concentration at 1 day ([1]; sc, SC LEN total, Day 1, read-out: Lower 90% CI of Concentration): 25.3 ng/mL
concentration at 10 week ([1]; sc, SC LEN total, Week 10, read-out: Lower 90% CI of Concentration): 47.1 ng/mL
concentration at 10 week ([1]; sc, SC LEN total, Week 10, read-out: Mean LEN plasma concentration): 54.9 ng/mL
concentration at 20 week ([1]; sc, SC LEN total, Week 20, read-out: Lower 90% CI of Concentration): 43.7 ng/mL
concentration at 20 week ([1]; sc, SC LEN total, Week 20, read-out: Mean LEN plasma concentration): 52.5 ng/mL
concentration at 30 week ([1]; sc, SC LEN total, Week 30, read-out: Lower 90% CI of Concentration): 24.4 ng/mL
concentration at 30 week ([1]; sc, SC LEN total, Week 30, read-out: Mean LEN plasma concentration): 50.1 ng/mL
concentration at 1 day ([1]; sc, Treatment Group 1 (SC LEN + [DVY→TAF]), Day 1, read-out: Mean LEN plasma concentration): 28.8 ng/mL
concentration at 1 day ([1]; sc, Treatment Group 2 (SC LEN + [DVY→BIC]), Day 1, read-out: Mean LEN plasma concentration): 26.7 ng/mL
Discontinuation of study drug due to a TEAE [2]: No participant discontinued study drug due to a TEAE
Participants with Grade 2 or higher TEAEs [2]: 26.3%
Treatment-related asthenia [2]: 1.8%
Treatment-related diarrhea [2]: 3.5%
Treatment-related nausea [2]: 1.8%
Grade 5 TEAE of death ([2]; 1 participant, considered unrelated to study drug): 1.8%
Participants with treatment-related TEAEs ([2]; all Grade 1): 3.5%
AE of death leading to discontinuation of the study ([2]; one participant): 1.8%
Changes from baseline in hematology and clinical chemistry ([2]; oral bridging period): no clinically relevant changes from baseline in hematology and clinical chemistry parameters; also recorded: no clinically relevant changes from baseline in median values for hematology and clinical chemistry
Changes from baseline in vital signs ([2]; oral bridging period): no clinically relevant changes from baseline in vital signs
Overall safety and tolerability of oral LEN ([2]; oral bridging period): generally safe and well tolerated
Participants with Grade 1 TEAEs ([2]; oral bridging period): 22.8%
Participants with Grade 2 TEAEs ([2]; oral bridging period): 24.6%
TEAE COVID-19 ([2]; oral bridging period): 7.0%
TEAE cough ([2]; oral bridging period): 5.3%
TEAE diarrhea ([2]; oral bridging period): 5.3%
TEAE upper respiratory tract infection ([2]; oral bridging period): 5.3%
Participants who experienced TEAEs ([2]; oral bridging period, 57 participants): 49.1%
Fold decrease in LEN susceptibility ([3]; K70N+N74K): 289 fold
Mean fold decrease in LEN susceptibility ([3]; Q67H or Q67Q/H, 3 participants): 5.6 fold
Fold decrease in LEN susceptibility ([3]; Q67H+K70R+T107T/N): 393 fold
Plasma concentration corresponding to inhibitory quotient 4 (IQ4) (HIV-1 (MT-4 cells)): 15.5 ng/mL
Exposure-safety relationship (Cavg, Ctrough, Cmax vs common AEs) ([4]; Examples 4 (N=55) and 5 (N=82), separately and combined): lack of association between LEN exposure from oral bridging and the incidence of common AEs
Exposure-efficacy relationship (post hoc Ctrough vs HIV-1 RNA <50 or ≥50 copies/mL) ([4]; HTE PWH (Example 4)): No trend in post hoc Ctrough was observed
Participants with HIV-1 RNA<50 copies/mL at the time SC LEN was resumed ([4]; HTE PWH with HIV-1 RNA<50 at OB baseline (Example 4)): 39 of 40
Lower 90% CI of LEN predose concentration [5]: 56.2 ng/mL
Mean LEN predose plasma concentration [5]: 74.4 ng/mL

Source: patent US20240390349A1, “DOSING REGIMEN OF CAPSID INHIBITOR” (priority 2023, published 2024)
